“Also recorded” adds a separate entry of the source.
Key:
[1] = system: HUVECs; assay: In vitro cytotoxicity (MTT) assay, HUVECs; assay type: cell-based, human; settings: 1 μg/mL to 100 μg/mL, 24 hr
Description: For cell cytotoxicity assay, the cells were then seeded into 96-well flat-bottomed tissue-culture plates at 1×10^4 cells/well and incubated for 24 hr in humidified atmosphere of 5% (vol./vol.) CO2 at 37° C. in the presence of each compound. The multivalent compound (monomer, dimer, and trimer) sample solutions were diluted with culture medium (1% FBS added) to obtain concentrations in the range of 0.1-100 μg/mL for each compound. The cytotoxic effects of monomer, dimer and trimer compounds were evaluated by adding 100 μL of each sample in 100 μL culture medium to each well. After 24-hrs' incubation, cell viability was evaluated by mitochondrial conversion of 3-(4,5-dimethylthiazol-2-yl)-2,5-diphenyl tetrazolium bromide (MTT assay) (Allison et al., 1985).

[2] = system: U-87 xenograft tumors; assay: In vivo and ex vivo NIR fluorescence imaging of U-87 xenograft tumor-bearing mice; settings: co-administered with 10 nmol bivalent-IA-Cy5.5; 2, 4, 7, 24, 48 hrs
Description: U-87 MG Xenograft Model, Animal procedures were performed according to approved protocols. Female athymic nude mice (nu/nu), obtained from Charles River Laboratories, Inc. (Cambridge, Mass., USA) at 4-6 weeks of age, were injected subcutaneously in the right rear thigh with 1×10^7 U-87 MG cells suspended in 100 μL of phosphate-buffered saline (PBS). The cancer cells were harvested from sub-confluent cultures with 0.25% trypsin. Trypsinization was stopped with DMEM containing 10% FBS, after which the cells were washed once in serum-free medium and resuspended in PBS. Trypan blue exclusion was performed to ensure >90% cell viability. The tumor bearing mice were subjected to in vivo imaging studies when the tumors reached 0.4-0.6 cm in diameter.
In vivo Fluorescence Imaging of Tumors. ˜3×10^6 U-87 cells were implanted bilaterally in the posterior flanks of immunocompromised (nu/nu) mice and grown to ˜4 to 6 mm in diameter. Imaging was carried out in groups of five mice. After palpable masses were detected, animals were manually restrained and imaging probes were intravenously administered (lateral tail vein) using a 30-Ga needle via aseptic technique. Free Cy5.5 was prepared by dissolving the same Cy5.5NHS ester used for labeling the bivalent IA (GE Healthcare, Piscatway, N.J., USA) in phosphate buffered saline (PBS), pH 7.4 overnight at 4° C. Stock concentration of free Cy5.5 was measured optically using the molar extinction coefficient of 250000M-1 cm-1 using a UV-visible spectrophotometer at the maximum absorbance wavelength (675 nm) as recommended by the manufacturer. The bivalent-IA-Cy5.5 was weighed and confirmed by spectrophotometric measurement. Appropriate dilutions of each probe were made in PBS, pH 7.4, and each was filter sterilized (0.2-μm) immediately prior to use. All animals weighed between 18 and 20 g, and each received 10 nmol of imaging probe (in a total volume of 100 μL). Fluorescence imaging was performed with a small animal-dedicated optical imaging system (Xenogen/Caliper IVIS-200, Mountain View, Calif., USA) under continuous 1.5-2.0% isoflurane delivered through the integrated anesthesia nosecone system. At 2-, 4-, 7-, 24-, and 48-hrs' post-injection, images were acquired with the surface of the tissue of interest (tumor) approximating a perpendicular viewing angle relative to the camera line of sight; this viewing angle was also used for normal tissue selection.
For determining tumor contrast, mean fluorescence intensities of the tumor area (T) defined as radiance (photons/sec/cm2/sr) at the right rear leg of the animal and of the area (N) at the right flank (normal tissue) were calculated by region-of-interest (ROI) analysis using the corresponding photograph of each image acquisition dataset to identify the tumor region. Pre-injection imaging was also performed to determine baseline autofluorescence. For competitive inhibition studies, mice (n=3) were co-injected with 500 nmol bivalent IA and 10 nmol of imaging probe (bivalent-IA-Cy5.5) following the same procedure described above. Free Cy5.5 studies were performed in the same manner following the intravenous injection of 10 nmol. For ex vivo biodistribution imaging, two tumor-bearing mice were imaged 24 hrs post injection of bivalent-IA-Cy5.5 and thereafter euthanized per IACUC protocol (CO2 and cervical dislocation). Tumor and major internal organs (heart, lung, liver, spleen, gastrointestinal tract, and kidneys) were harvested, weighed, and imaged against a black paper background. All image acquisition parameters were as follows: epi-illumination; Cy5.5 Em/Ex; Bin: (HR)4, FOV: 12.9; f2; 0.2 sec.

Compound | cytotoxicity on HUVEC cells [1] | competitive inhibition of bivalent-IA-Cy5.5 tumor fluorescence signal [2]
O=C(NCCS(=O)(=O)N[C@@H](CNC(=O)c1ccc(OCCNC2=NCCCN2)cc1)C(=O)O)OCCN(CCOC(=O)NCCS(=O)(=O)N[C@@H](CNC(=O)c1ccc(OCCNC2=NCCCN2)cc1)C(=O)O)CCOC(=O)NCCS(=O)(=O)N[C@@H](CNC(=O)c1ccc(OCCNC2=NCCCN2)cc1)C(=O)O [IA trimer] | increased cytotoxicity over the IA-monomer and dimer | 
NC(CCCCCC(=O)NCCS(=O)(=O)N[C@@H](CNC(=O)c1ccc(OCCNC2=NCCCN2)cc1)C(=O)O)C(=O)NCCS(=O)(=O)N[C@@H](CNC(=O)c1ccc(OCCNC2=NCCCN2)cc1)C(=O)O (some centres unmarked) [bivalent IA] |  | Significant blocking of tumor fluorescence signal; also recorded: reduced at all timepoints measured

— patent US9833520B2, “Labeled, non-peptidic, multivalent integrin antagonist compounds; methods for synthesis and uses thereof” (The Methodist Hospital Research Institute, priority 2011, dated 2017)
